{"source": "patent US11865126B2", "about": "“Method for treating anxiety disorders, headache disorders, and eating disorders with psilocybin” (priority 2019, dated 2024)", "key": {"CCK-4-treated rats": {"test_system": "CCK-4-treated rats", "assay": "Elevated plus maze (EPM) after CCK-4 induced panic anxiety", "format": "in vivo, rat", "method": "This example examines the effects of psilocybin on induced panic anxiety. The elevated plus maze (EPM) is a widely used behavioral assay for rodents to assess anti-panic or anti-anxiety effects of pharmacological agents. Briefly, rodents are placed at the junction of the four arms of the maze, facing an open arm, and entries/duration in each arm are recorded over a period of time. An increase in open arm activity reflects anti-anxiety behavior (Walf et al., Nature Protocols, 2007).\nPanic anxiety can be induced in rodents through administration of panicogenic drugs such as cholecystokinin tetrapeptide (CCK-4). Peripheral administration of CCK-4 leads to an anxiogenic-like action in the EPM model of anxiety in rats. The anxiogenic effect of CCK-4 can be antagonized by benzodiazepine (e.g., diazepam) treatment.\nAnimal handling was performed on a daily basis starting 1 week before the EPM assay. CCK-4 was prepared in saline at the dosage volume of 1 mL/kg and was intraperitoneally administered to the rats 30 min before implementation of the EPM test resulting in a CCK-4 dose of 0.2 mg/kg. CCK-4 was administered to all treatment groups except for the vehicle control (saline). Treatment groups for this study are shown below in Table 33. The EPM assay was performed 2 hours, and 24 hours following administration of psilocybin, and 1 hour after administration of diazepam.\nThe apparatus used in the EPM assay was a PVC maze covered with Plexiglas and subdivided into four equal exploratory arms (21×8 cm). All arms were interconnected by a small platform (8×8 cm). The apparatus was placed 59 cm above the floor. Two arms were open and two arms were closed with walls (height: 21 cm).\nAfter the appropriate pre-treatment time, the rat was placed on the platform opposite a closed arm. The number of entries and the time spent in each arm were recorded during a 5 min period. The animal was considered as entered in an arm when it placed four paws in the arm. During the trial, animal handling and the visibility of the operator was minimized as much as possible.\nThe results were analyzed by analysis of variance (ANOVA). Fisher's PLSD was used for pairwise comparisons and p value s 0.05 were considered significant."}, "female Wistar rats": {"test_system": "female Wistar rats", "assay": "Binge eating model: chow, chocolate and total food intake"}, "[1]": {"settings": "0.2 mg/kg i.p., 30 min before EPM"}, "[2]": {"settings": "positive control, 1 hour after administration"}}}
{"smiles": "CSCC[C@H](NC(=O)[C@@H](N)Cc1c[nH]c2ccccc12)C(=O)N[C@@H](CC(=O)O)C(=O)N[C@@H](Cc1ccccc1)C(N)=O", "note": "[CCK-4, cholecystokinin tetrapeptide]", "values": [{"measurement": "Number of entries into the open arm vs saline alone", "setting": "CCK-4-treated rats; [1]", "result": "significantly reduced"}, {"measurement": "Time spent in the open arm vs saline alone", "setting": "CCK-4-treated rats; [1]", "result": "significantly reduced"}]}
{"smiles": "CN1C(=O)CN=C(c2ccccc2)c2cc(Cl)ccc21", "note": "[Diazepam, diazepam]", "values": [{"measurement": "Number of entries into the open arms vs CCK-4 alone", "setting": "CCK-4-treated rats; [2]", "result": "significant increase"}, {"measurement": "Time spent in the open arms vs CCK-4 alone", "setting": "CCK-4-treated rats; [2]", "result": "significant increase"}]}
{"smiles": "C[C@@H](Cc1ccccc1)NC(=O)[C@@H](N)CCCCN", "note": "[LDX, lisdexamfetamine]", "values": [{"measurement": "Chocolate intake during binging session vs vehicle/binge", "setting": "female Wistar rats; 0.8 mg/kg daily PO, 1 hour", "result": "significantly reduced chocolate eating"}, {"measurement": "Food intake over a 24 hour period", "setting": "female Wistar rats; Day 1, 0.8 mg/kg daily PO", "result": "significantly reduced"}]}
